Among the data in patent US11225482B2, “Dihydropyrrolopyrimidines for the treatment and prophylaxis of hepatitis B virus infection” (Hoffmann-La Roche Inc., priority 2017, dated 2022) are IC50 values, retold here.

pIC50: −log10 of the molar value.

The experiment deals with HBsAg. Description: HBsAg assay (CLIA) in HepG2.2.15 cells. Type of experiment: cell-based, HBV. The following applies: Hepatitis B virus, HepG2.2.15, read-out: IC50 (HBsAg assay). The method, then: HepG2.2.15 cells (Acs et al. Proc Natl Acad Sci USA, 84, (1987), 4641-4), a constitutively HBV-expressing cell line were cultured in DMEM+Glutamax-I medium (Invitrogen, Carlsbad, Calif., USA), supplemented with 10% fetal bovine serum (Invitrogen) and G418 (Invitrogen) at a final concentration of 200 mg/L and maintained in 5% CO2 at 37° C.
HepG2.2.15 cells were seeded in duplicate into white, 96-well plates at 1.5×10^4 cells/well. The cells were treated with a three-fold serial dilution series of the compounds in DMSO. The final DMSO concentration in all wells was 1% and DMSO was used as no drug control.
The HBsAg chemiluminescence immunoassay (CLIA) kit (Autobio Diagnostics Co., Zhengzhou, China, Catalog number: CL0310-2) was used to measure the levels of secreted HBV antigens semi-quantitatively. For the detection 50 μL/well culture supernatant was used and HBsAg was quantified using HBsAg chemiluminescence immunoassay (CLIA) kit (Autobio Diagnostics Co., Zhengzhou, China, Catalog number: CL0310-2), 50 μL of the supernatant was transferred to the CLIA assay plate and 50 μL of enzyme conjugate reagent was added into each well. The plates were sealed and gently agitated for 1 hour at room temperature. The supernatant-enzyme-mixture was discarded and wells were washed 6 times with 300 μL of PBS. The residual liquid was removed by plating the CLIA plate […] on absorbent tissue paper. 25 μL of substrates A and B were added to each well. Luminance was measured using a luminometer (Mithras LB 940 Multimode Microplate Reader) after 10 minutes incubation. Dose-response curves were generated and the IC50 value was extrapolated by using the E-WorkBook Suite (ID Business Solutions Ltd., Guildford, UK). The IC50 was defined as the compound concentration (or conditioned media log dilution) at which HBsAg secretion was reduced by 50% compared to the no drug control.

Regarding `Cc1ccc(C(=O)N2Cc3nc(-c4ncccn4)ncc3C2C)s1` (centres unmarked) [Example 8, (5-Methyl-2-pyrimidin-2-yl-5,7-dihydropyrrolo[3,4-d]pyrimidin-6-yl)-(5-methyl-2-thienyl)methanone], the pIC50 – broadly, the IC50 on a negative log10 scale, so that one unit is a factor of ten – is 6.17. `CC1c2cnc(-c3ncccn3)nc2CN1c1cc(N2CCNC(=O)C2)cc(F)n1` (centres unmarked) [Example 45, 4-[2-Fluoro-6-(5-methyl-2-pyrimidin-2-yl-5,7-dihydropyrrolo[3,4-d]pyrimidin-6-yl)-4-pyridyl]piperazin-2-one]: the pIC50 was 6.80.

With `COc1cc(F)nc(N2Cc3nc(-c4ccccn4)ncc3C2C)c1` (centres unmarked) [Example 33, 6-(6-Fluoro-4-methoxy-2-pyridyl)-5-methyl-2-(2-pyridyl)-5,7-dihydropyrrolo[3,4-d]pyrimidine], the pIC50 was 6.90. As for `CC1c2cnc(-c3ncccn3)nc2CN1C(=O)c1nc2ccccc2[nH]1` (centres unmarked) [Example 14, 1H-Benzimidazol-2-yl-(5-methyl-2-pyrimidin-2-yl-5,7-dihydropyrrolo[3,4-d]pyrimidin-6-yl)methanone], the pIC50 is 6.37. As to `CC(=O)N1CCN(c2cc(F)cc(N3Cc4nc(-c5ncccn5)ncc4C3C)n2)CC1` (centres unmarked) [Example 34, 1-[4-[4-Fluoro-6-(5-Methyl-2-Pyrimidin-2-Yl-5,7-Dihydropyrrolo[3,4-d]Pyrimidin-6-Yl)-2-Pyridyl]Piperazin-1-Yl]Ethanone], the pIC50 was 6.44. For the compound `CC1c2cnc(-c3ncccn3)nc2CN1c1cc(N2CCCCC2)cc(F)n1` (centres unmarked) [Example 41, 6-[6-Fluoro-4-(1-piperidyl)-2-pyridyl]-5-methyl-2-pyrimidin-2-yl-5,7-dihydropyrrolo[3,4-d]pyrimidine], the pIC50 is 7.39. For the compound `CC1c2cnc(-c3ncccn3)nc2CN1C(=O)c1n[nH]c2ccccc12` (centres unmarked) [Example 23, 1H-indazol-3-yl-(5-methyl-2-pyrimidin-2-yl-5,7-dihydropyrrolo[3,4-d]pyrimidin-6-yl)methanone], the pIC50 was 6.63.

Regarding `CC1c2cnc(-c3ncccn3)nc2CN1C(=O)c1ccc2ncsc2c1` (centres unmarked) [Example 25, 1,3-Benzothiazol-6-yl-(5-methyl-2-pyrimidin-2-yl-5,7-dihydropyrrolo[3,4-d]pyrimidin-6-yl)methanone], the pIC50 was 4.54. As for `CC1c2cnc(-c3ncccn3)nc2CN1C(=O)c1ccc([N+](=O)[O-])s1` (centres unmarked) [Example 18, (5-Methyl-2-pyrimidin-2-yl-5,7-dihydropyrrolo[3,4-d]pyrimidin-6-yl)-(5-nitro-2-thienyl)methanone], the figure is 6.14; as for `CC1c2cnc(-c3ncccn3)nc2CN1C(=O)c1cc(C(F)(F)F)cs1` (centres unmarked) [Example 3, (5-Methyl-2-pyrimidin-2-yl-5,7-dihydropyrrolo[3,4-d]pyrimidin-6-yl)-[4-(trifluoromethyl)-2-thienyl]methanone], 6.26. As for `CC1c2cnc(-c3ncccn3)nc2CN1C(=O)c1nc2ccccc2s1` (centres unmarked) [Example 28, 1,3-Benzothiazol-2-yl-(5-methyl-2-pyrimidin-2-yl-5,7-dihydropyrrolo[3,4-d]pyrimidin-6-yl)methanone], the figure is 5.75. On to `Cc1csc(C(=O)N2Cc3nc(-c4ncccn4)ncc3C2C)c1` (centres unmarked) [Example 6, (5-Methyl-2-pyrimidin-2-yl-5,7-dihydropyrrolo[3,4-d]pyrimidin-6-yl)-(4-methyl-2-thienyl)methanone], for which the negative-log IC50 (pIC50) is 5.95. As to `CC1c2cnc(-c3ncccn3)nc2CN1C(=O)c1ccc(Cl)s1` (centres unmarked) [Example 9, (5-Chloro-2-thienyl)-(5-methyl-2-pyrimidin-2-yl-5,7-dihydropyrrolo[3,4-d]pyrimidin-6-yl)methanone], the pIC50 was 6.42. `COc1cncc(C(=O)N2Cc3nc(-c4ncccn4)ncc3C2C)n1` (centres unmarked) [Example 22, (6-Methoxypyrazin-2-yl)-(5-methyl-2-pyrimidin-2-yl-5,7-dihydropyrrolo[3,4-d]pyrimidin-6-yl)methanone]: the pIC50 was 5.32.
